Consider 1 substance from patent US20030073737A1, “Tolerance induction” (priority 2001, published 2003).

One assay has as its system donor heart graft. Put plainly: Rat heterotopic heart transplantation, graft survival. Conditions: Lewis/BN rats; i.v. or s.c., daily dose up to 1 mg/kg for 1-12 weeks, e.g. 4 weeks; daily palpation of beating donor heart. Format: in vivo. From the text: 1. Rat Heterotopic Heart Transplantation
The strain combination used: Male Lewis (RT^1 haplotype) and BN (RT^1 haplotype). The animals are anaesthetised using inhalational isofluorane. […] The aorta is ligated and divided distal to the first branch and the brachiocephalic trunk is divided at the first bifurcation. The left pulmonary artery is ligated and divided and the right side divided but left open. All other vessels are dissected free, ligated and divided and the donor heart is removed into iced saline.
The recipient is prepared by dissection and cross-clamping of the infra-renal abdominal aorta and vena cava. The graft is implanted with end-to-side anastomoses, using 10/0 monofilament suture, between the donor brachiocephalic trunk and the recipient aorta and the donor right pulmonary artery to the recipient vena cava. The clamps are removed, the graft tethered retroabdominally, the abdominal contents washed with warm saline and the animal is closed and allowed to recover under a heating lamp. Graft survival is monitored by daily palpation of the beating donor heart through the abdominal wall. Rejection is considered to be complete when heart beat stops.

The test system of assay [1] is mixed lymphocyte reaction. The note with it: as described in WO 99/50388; cited from earlier work.

Take Tautomycetin: in the assay with donor heart graft, the graft survival entry is “Increases of graft survival are obtained beyond treatment time”. Moreover, the “inhibition of the mixed lymphocyte reaction” value in assay [1] is “inhibition of the mixed lymphocyte reaction”.
